In ChEMBL document CHEMBL4196213, “Design and Synthesis of Novel Amino-triazine Analogues as Selective Bruton's Tyrosine Kinase Inhibitors for Treatment of Rheumatoid Arthritis” (J Med Chem, 2018):
In brackets after ≈: the same amount, converted by molar mass.

Columns and labels:
[1] = Kinetic solubility of the compound incubated for 1 hr by LC-UV or LC-MS/MS analysis; type: physicochemical; conditions: read-out: Kinetic_solubility
[2] = MRT (0 to infinity) in dog at 1 mg/kg, iv; type: ADME, organism-based, Canis lupus familiaris; conditions: in vivo
[3] = Cmax in dog at 1 mg/kg, iv; type: ADME, organism-based, Canis lupus familiaris; set-up: dose 1 mg/kg, route intravenous; conditions: in vivo
[4] = Tmax in dog at 2 mg/kg, po; type: ADME, organism-based, Canis lupus familiaris; conditions: in vivo
[5] = AUC (0 to t) in dog at 1 mg/kg, iv; type: ADME, organism-based, Canis lupus familiaris; conditions: in vivo
[6] = Volume of distribution in dog at 1 mg/kg, iv; type: ADME, organism-based, Canis lupus familiaris; conditions: in vivo
[7] = AUC (0 to infinity) in dog at 2 mg/kg, po; type: ADME, organism-based, Canis lupus familiaris; set-up: dose 2 mg/kg, time infinity, route oral; conditions: in vivo
[8] = Cmax in dog at 2 mg/kg, po; type: ADME, organism-based, Canis lupus familiaris; set-up: dose 2 mg/kg, route oral; conditions: in vivo
[9] = AUC (0 to t) in dog at 2 mg/kg, po; type: ADME, organism-based, Canis lupus familiaris; conditions: in vivo
[10] = Oral bioavailability in dog at 2 mg/kg, iv; type: ADME, organism-based, Canis lupus familiaris; conditions: in vivo
[11] = AUC (0 to infinity) in dog at 1 mg/kg, iv; type: ADME, organism-based, Canis lupus familiaris; set-up: dose 1 mg/kg, time infinity, route intravenous; conditions: in vivo
[12] = Apparent permeability in human Caco2 cells; type: ADME, cell-based; conditions: Caco-2
[13] = AUC (0 to infinity) in mouse at 2 mg/kg, iv; type: ADME, organism-based; set-up: dose 2 mg/kg, time infinity, route intravenous; conditions: in vivo
[14] = AUC (0 to t) in rat at 10 mg/kg, po; type: ADME, organism-based; conditions: in vivo
[15] = Cmax in rat at 10 mg/kg, po; type: ADME, organism-based; set-up: dose 10 mg/kg, route oral; conditions: in vivo
[16] = Volume of distribution in mouse at 2 mg/kg, iv; type: ADME, organism-based; conditions: in vivo
[17] = MRT (0 to infinity) in rat at 1 mg/kg, iv; type: ADME, organism-based; conditions: in vivo
[18] = AUC (0 to t) in rat at 1 mg/kg, iv; type: ADME, organism-based; conditions: in vivo
[19] = AUC (0 to t) in mouse at 10 mg/kg, po; type: ADME, organism-based; conditions: in vivo
[20] = MRT (0 to infinity) in rat at 10 mg/kg, po; type: ADME, organism-based; conditions: in vivo
[21] = Tmax in mouse at 10 mg/kg, po; type: ADME, organism-based; conditions: in vivo
[22] = AUC (0 to infinity) in rat at 10 mg/kg, po; type: ADME, organism-based; set-up: dose 10 mg/kg, route oral, time infinity; conditions: in vivo
[23] = MRT (0 to infinity) in mouse at 10 mg/kg, po; type: ADME, organism-based; conditions: in vivo
[24] = AUC (0 to t) in mouse at 2 mg/kg, iv; type: ADME, organism-based; conditions: in vivo
[25] = Cmax in mouse at 2 mg/kg, iv; type: ADME, organism-based; set-up: dose 2 mg/kg, route intravenous; conditions: in vivo
[26] = MRT (0 to infinity) in mouse at 2 mg/kg, iv; type: ADME, organism-based; conditions: in vivo
[27] = Oral bioavailability in mouse at 10 mg/kg; type: ADME, organism-based; conditions: in vivo
[28] = Volume of distribution in rat at 1 mg/kg, iv; type: ADME, organism-based; conditions: in vivo
[29] = Tmax in rat at 10 mg/kg, po; type: ADME, organism-based; conditions: in vivo
[30] = Cmax in rat at 1 mg/kg, iv; type: ADME, organism-based; set-up: dose 1 mg/kg, route intravenous; conditions: in vivo
[31] = Oral bioavailability in rat at 10 mg/kg; type: ADME, organism-based; conditions: in vivo
[32] = AUC (0 to infinity) in mouse at 10 mg/kg, po; type: ADME, organism-based; set-up: dose 10 mg/kg, time infinity, route oral; conditions: in vivo

For N#Cc1cc(Nc2nc(N)nc(-c3cccc(-n4ccc5cc(C6CC6)cc(F)c5c4=O)c3CO)n2)cn1C1CC1, which solubility kinetic at 1 h [1] is on record?
Its solubility kinetic at 1 h is 4 µM (≈ 2.19 µg/mL).

Which solubility kinetic at 1 h [1] does the source give for Cn1cc(Nc2nc(N)nc(-c3cccc(-n4ccc5cc(C6CC6)cc(F)c5c4=O)c3CO)n2)cc1C#N here?
The solubility kinetic at 1 h was 0.67 µM (≈ 0.35 µg/mL).

Which MRT inf [2] does the source give for Cn1cc(Nc2nc(N)nc(-c3cccc(-n4ccc5cc(C6CC6)cc(F)c5c4=O)c3CO)n2)cn1.O=S(=O)(O)O here?
The MRT inf was 3.31 h.

What about the Cmax [3] of the same molecule?
The Cmax was 4960 ng/mL.

What about the Tmax [4] of the same molecule?
The Tmax was 2 h.

And the AUC(0-t) [5]?
Its AUC(0-t) is 11300 ng·h/mL.

What about the Vd [6] of the same molecule?
Its Vd is 0.29 L/kg.

What about the AUC(0-inf) [7] of the same molecule?
The AUC(0-inf) was 10000 ng·h/mL.

And the Cmax [8]?
Its Cmax is 2090 ng/mL.

And the AUC(0-t) [9]?
Its AUC(0-t) is 9850 ng·h/mL.

What about the bioavailability [10] of the same molecule?
The bioavailability was 43.7%.

What about the AUC(0-inf) [11] of the same molecule?
Its AUC(0-inf) is 11500 ng·h/mL.

For CC(C)n1cc(Nc2nc(N)nc(-c3cccc(-n4ccc5cc(C6CC6)cc(F)c5c4=O)c3CO)n2)cc1C#N, which solubility kinetic at 1 h [1] is on record?
The solubility kinetic at 1 h was 4.8 µM (≈ 2.64 µg/mL).

For CC(C1CC1)n1cc(Nc2nc(N)nc(-c3cccc(-n4ccc5cc(C6CC6)cc(F)c5c4=O)c3CO)n2)cn1 (configuration not stated), which solubility kinetic at 1 h [1] is on record?
Its solubility kinetic at 1 h is 2 µM (≈ 1.11 µg/mL).

With COCCOCCn1cc(Nc2nc(N)nc(-c3cccc(-n4ccc5cc(C6CC6)cc(F)c5c4=O)c3CO)n2)cc1C#N as the molecule, how does the solubility kinetic at 1 h [1] read?
The solubility kinetic at 1 h was 9.5 µM (≈ 5.8 µg/mL).

With Nc1nc(Nc2cn[nH]c2)nc(-c2cccc(-n3ccc4cc(C5CC5)cc(F)c4c3=O)c2CO)n1 as the molecule, how does the solubility kinetic at 1 h [1] read?
The solubility kinetic at 1 h was 12 µM (≈ 5.81 µg/mL).

For CCn1cc(Nc2nc(N)nc(-c3cccc(-n4ccc5cc(C6CC6)cc(F)c5c4=O)c3CO)n2)cc1C#N, which solubility kinetic at 1 h [1] is on record?
Its solubility kinetic at 1 h is 0.71 µM (≈ 0.381 µg/mL).

For Nc1nc(Nc2cnn(C3CC3)c2)nc(-c2cccc(-n3ccc4cc(C5CC5)cc(F)c4c3=O)c2CO)n1, which solubility kinetic at 1 h [1] is on record?
The solubility kinetic at 1 h was 4.7 µM (≈ 2.47 µg/mL).

With CC(C)(C)c1ccc(C(=O)Nc2cccc(-c3nc(N)nc(Nc4ccc(N5CCOCC5)cc4)n3)c2CO)cc1 as the molecule, how does the Papp [12] read?
The Papp was 16.3 ×10⁻⁶ cm/s.

With Nc1nc(Nc2ccc(N3CCOCC3)cc2)nc(-c2cccc(-n3ccc4cc(C5CC5)cc(F)c4c3=O)c2CO)n1 as the molecule, how does the solubility kinetic at 1 h [1] read?
Its solubility kinetic at 1 h is 1.2 µM (≈ 0.696 µg/mL).

With CC(C)(C)c1ccc(C(=O)Nc2cccc(-c3nc(N)nc(Nc4ccc(C(=O)N5CCOCC5)cc4)n3)c2CO)cc1 as the molecule, how does the Papp [12] read?
Its Papp is 7.4 ×10⁻⁶ cm/s.

Which results are given for Cn1cc(Nc2nc(N)nc(-c3cccc(-n4ccc5cc(C6CC6)cc(F)c5c4=O)c3CO)n2)cn1 [SOFNOBRUTINIB]?
AUC(0-inf) [13]: 3110 ng·h/mL; solubility kinetic at 1 h [1]: 20 µM (≈ 9.97 µg/mL); AUC(0-t) [14]: 8700 ng·h/mL; Cmax [15]: 1480 ng/mL; Vd [16]: 3.03 L/kg; MRT inf [17]: 1.79 h; AUC(0-t) [18]: 1920 ng·h/mL; AUC(0-t) [19]: 10200 ng·h/mL; MRT inf [20]: 4.88 h; Tmax [21]: 0.5 h; AUC(0-inf) [22]: 8710 ng·h/mL; MRT inf [23]: 1.56 h; AUC(0-t) [24]: 3110 ng·h/mL; Cmax [25]: 2890 ng/mL; MRT inf [26]: 1.3 h; bioavailability [27]: 65.8%; Vd [28]: 1.1 L/kg; Tmax [29]: 2 h; Cmax [30]: 1380 ng/mL; bioavailability [31]: 44.4%; AUC(0-inf) [32]: 10200 ng·h/mL
